The results in this text go back to ChEMBL document CHEMBL1201862, “PubChem BioAssay data set” (2004).

One may read the IC50 as the concentration that inhibits the measured activity by half. The term Ki denotes a measure of affinity in units of concentration, obtained from inhibition or displacement.

Assay [1] has as its target T1, Exodeoxyribonuclease V (Escherichia coli (strain K12), UniProt P04993+P07648+P08394).
T1 sequence (P04993 whole entry): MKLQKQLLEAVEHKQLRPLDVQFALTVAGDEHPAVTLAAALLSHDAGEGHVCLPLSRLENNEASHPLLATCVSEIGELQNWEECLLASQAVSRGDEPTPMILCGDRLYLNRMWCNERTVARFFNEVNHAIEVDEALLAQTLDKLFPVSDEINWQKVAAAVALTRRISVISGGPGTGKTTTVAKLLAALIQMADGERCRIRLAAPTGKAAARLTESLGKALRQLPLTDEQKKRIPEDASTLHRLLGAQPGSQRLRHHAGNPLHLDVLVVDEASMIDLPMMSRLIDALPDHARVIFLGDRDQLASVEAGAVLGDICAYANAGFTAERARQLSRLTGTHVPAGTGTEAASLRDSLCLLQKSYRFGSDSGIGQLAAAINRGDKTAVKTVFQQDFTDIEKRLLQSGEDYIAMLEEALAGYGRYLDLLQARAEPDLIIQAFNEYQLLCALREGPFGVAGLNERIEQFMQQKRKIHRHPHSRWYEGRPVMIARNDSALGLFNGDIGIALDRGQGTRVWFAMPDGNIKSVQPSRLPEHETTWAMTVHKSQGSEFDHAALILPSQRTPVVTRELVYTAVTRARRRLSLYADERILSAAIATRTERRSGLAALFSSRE
T1 sequence (P07648 whole entry): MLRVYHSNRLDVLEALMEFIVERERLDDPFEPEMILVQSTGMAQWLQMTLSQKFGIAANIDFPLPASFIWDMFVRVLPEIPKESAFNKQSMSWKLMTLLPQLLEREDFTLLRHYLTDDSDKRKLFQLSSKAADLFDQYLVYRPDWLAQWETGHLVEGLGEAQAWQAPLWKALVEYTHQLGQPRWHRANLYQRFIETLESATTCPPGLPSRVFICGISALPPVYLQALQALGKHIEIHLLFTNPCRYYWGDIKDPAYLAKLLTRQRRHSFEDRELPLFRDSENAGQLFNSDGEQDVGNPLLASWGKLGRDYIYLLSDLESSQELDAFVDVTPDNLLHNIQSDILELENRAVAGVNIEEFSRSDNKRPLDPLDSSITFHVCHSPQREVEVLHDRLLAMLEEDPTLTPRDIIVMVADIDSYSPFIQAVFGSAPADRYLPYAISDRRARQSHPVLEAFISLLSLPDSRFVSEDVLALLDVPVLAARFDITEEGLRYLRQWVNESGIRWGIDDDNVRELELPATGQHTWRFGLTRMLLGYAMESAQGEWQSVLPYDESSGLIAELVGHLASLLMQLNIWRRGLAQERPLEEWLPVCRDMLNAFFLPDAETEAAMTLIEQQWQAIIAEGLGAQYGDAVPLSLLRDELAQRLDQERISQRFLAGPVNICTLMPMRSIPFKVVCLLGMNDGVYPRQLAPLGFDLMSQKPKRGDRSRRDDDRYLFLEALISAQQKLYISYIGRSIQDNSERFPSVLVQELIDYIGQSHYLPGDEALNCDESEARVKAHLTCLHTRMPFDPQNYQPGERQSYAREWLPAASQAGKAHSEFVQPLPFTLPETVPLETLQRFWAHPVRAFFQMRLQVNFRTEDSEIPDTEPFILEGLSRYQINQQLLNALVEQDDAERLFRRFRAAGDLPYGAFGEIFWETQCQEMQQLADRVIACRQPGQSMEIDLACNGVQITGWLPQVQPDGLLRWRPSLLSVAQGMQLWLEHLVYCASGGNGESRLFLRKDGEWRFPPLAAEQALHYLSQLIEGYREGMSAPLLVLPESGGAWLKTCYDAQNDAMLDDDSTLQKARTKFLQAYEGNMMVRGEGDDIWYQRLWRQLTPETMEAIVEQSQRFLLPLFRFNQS
T1 sequence (P08394 whole entry): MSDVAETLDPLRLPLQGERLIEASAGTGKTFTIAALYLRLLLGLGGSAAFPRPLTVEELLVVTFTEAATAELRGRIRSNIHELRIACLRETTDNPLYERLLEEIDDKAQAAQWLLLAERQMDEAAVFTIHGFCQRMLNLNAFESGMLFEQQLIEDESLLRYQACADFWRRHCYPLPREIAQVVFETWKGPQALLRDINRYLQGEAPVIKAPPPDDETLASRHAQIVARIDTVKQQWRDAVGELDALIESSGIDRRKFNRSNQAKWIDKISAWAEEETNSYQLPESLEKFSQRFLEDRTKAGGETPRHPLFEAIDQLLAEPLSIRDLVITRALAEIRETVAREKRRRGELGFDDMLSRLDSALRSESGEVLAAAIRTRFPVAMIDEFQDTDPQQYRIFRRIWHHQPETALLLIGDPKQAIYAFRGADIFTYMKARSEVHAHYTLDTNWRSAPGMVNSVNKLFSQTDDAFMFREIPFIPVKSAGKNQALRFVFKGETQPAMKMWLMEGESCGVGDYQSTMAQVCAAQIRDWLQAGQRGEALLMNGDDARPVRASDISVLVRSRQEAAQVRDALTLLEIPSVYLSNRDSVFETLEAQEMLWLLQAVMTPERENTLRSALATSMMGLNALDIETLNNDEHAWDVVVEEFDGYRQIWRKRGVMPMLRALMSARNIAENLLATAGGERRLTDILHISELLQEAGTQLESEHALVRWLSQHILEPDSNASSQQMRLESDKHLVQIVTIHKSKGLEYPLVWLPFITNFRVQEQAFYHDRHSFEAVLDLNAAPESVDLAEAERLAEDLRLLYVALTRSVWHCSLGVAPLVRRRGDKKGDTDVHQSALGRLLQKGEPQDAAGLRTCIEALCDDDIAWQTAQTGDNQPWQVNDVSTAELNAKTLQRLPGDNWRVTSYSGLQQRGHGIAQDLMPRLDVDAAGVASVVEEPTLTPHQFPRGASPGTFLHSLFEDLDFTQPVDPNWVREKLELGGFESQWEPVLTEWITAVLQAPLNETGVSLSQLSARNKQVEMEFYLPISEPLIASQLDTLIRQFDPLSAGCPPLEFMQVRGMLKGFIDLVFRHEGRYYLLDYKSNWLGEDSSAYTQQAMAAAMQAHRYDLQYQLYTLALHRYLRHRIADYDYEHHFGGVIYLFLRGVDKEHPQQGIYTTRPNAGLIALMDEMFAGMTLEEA
Description: E. coli RecBCD inhibitors, dose response, counter-screen for AddAB inhibitor project, absorbance, V66 E. coli, mutant T4 phage (AID 492957). In kind it is functional, cell-based, Escherichia coli str. K-12 substr. MG1655. A general note: The purpose of a counterscreen is to sort out artefacts and off-target activity.

Assay [2] addresses Casein kinase II subunit alpha (Homo sapiens, UniProt P68400). In kind it is functional.
Assay [3] deals with Serine/threonine-protein kinase PLK3 (Homo sapiens, UniProt Q9H4B4). Type of assay: functional.
For assay [4], the target named is Vascular endothelial growth factor receptor 3 (Homo sapiens, UniProt P35916). In kind it is functional.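 Note: value from a kinome-wide profiling panel, with FLT4 as the panel member.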
In assay [5] the target is Serine/threonine-protein kinase MRCK alpha (Homo sapiens, UniProt Q5VT25). In kind it is functional.

Active and inactive are the calls of the source.

Sequence of Vascular endothelial growth factor receptor 3 (P35916 whole entry): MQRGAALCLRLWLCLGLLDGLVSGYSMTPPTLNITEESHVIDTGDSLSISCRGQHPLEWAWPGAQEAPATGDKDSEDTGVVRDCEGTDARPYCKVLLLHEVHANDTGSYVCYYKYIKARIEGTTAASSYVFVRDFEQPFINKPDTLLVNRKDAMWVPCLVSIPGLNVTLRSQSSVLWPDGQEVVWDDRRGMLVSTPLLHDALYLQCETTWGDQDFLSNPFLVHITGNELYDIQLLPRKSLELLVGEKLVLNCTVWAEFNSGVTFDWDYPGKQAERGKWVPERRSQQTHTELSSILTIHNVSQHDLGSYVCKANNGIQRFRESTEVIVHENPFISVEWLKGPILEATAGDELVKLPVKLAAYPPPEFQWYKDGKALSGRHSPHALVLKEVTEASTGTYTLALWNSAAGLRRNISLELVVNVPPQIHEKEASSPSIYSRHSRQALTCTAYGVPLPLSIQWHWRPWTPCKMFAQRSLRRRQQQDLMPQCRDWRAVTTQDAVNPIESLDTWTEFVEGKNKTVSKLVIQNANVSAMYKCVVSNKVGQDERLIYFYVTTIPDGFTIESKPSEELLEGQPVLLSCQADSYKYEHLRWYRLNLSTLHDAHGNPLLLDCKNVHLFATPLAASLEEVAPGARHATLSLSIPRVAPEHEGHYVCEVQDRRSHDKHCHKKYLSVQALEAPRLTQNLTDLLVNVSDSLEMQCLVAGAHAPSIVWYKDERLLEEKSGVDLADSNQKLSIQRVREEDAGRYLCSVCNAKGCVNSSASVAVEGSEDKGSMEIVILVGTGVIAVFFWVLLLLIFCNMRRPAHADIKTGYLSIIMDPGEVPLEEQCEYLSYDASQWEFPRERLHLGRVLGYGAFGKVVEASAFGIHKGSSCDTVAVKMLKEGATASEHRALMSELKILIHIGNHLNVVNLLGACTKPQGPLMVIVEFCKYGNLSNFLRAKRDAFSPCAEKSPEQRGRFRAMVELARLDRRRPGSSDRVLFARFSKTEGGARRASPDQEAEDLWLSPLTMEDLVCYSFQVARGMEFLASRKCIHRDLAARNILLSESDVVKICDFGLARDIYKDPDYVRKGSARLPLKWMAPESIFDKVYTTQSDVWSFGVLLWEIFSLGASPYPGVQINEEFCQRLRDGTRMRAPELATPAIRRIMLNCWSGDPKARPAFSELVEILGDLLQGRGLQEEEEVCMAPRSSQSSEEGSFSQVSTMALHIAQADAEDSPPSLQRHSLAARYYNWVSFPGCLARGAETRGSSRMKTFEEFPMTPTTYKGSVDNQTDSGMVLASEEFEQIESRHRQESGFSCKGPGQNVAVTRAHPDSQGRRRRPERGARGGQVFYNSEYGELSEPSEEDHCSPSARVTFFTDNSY
Sequence of Serine/threonine-protein kinase PLK3 (Q9H4B4 whole entry): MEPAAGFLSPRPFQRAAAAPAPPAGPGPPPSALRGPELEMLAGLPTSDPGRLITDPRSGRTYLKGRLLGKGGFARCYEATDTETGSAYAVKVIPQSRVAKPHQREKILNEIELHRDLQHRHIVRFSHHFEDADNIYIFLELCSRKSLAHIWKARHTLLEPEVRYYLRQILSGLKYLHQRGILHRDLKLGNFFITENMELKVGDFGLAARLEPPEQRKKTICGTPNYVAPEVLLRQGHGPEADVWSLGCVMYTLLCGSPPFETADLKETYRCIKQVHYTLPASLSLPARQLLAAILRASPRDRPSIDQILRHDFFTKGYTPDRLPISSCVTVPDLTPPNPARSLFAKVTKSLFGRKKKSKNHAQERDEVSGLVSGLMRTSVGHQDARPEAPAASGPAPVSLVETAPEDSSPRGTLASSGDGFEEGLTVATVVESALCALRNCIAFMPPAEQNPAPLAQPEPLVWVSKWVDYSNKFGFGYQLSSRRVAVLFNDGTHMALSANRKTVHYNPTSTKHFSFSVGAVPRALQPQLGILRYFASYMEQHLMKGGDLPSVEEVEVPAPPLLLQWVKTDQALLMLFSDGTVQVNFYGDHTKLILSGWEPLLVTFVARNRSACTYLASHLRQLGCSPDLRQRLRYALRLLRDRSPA
Sequence of Serine/threonine-protein kinase MRCK alpha (Q5VT25 whole entry): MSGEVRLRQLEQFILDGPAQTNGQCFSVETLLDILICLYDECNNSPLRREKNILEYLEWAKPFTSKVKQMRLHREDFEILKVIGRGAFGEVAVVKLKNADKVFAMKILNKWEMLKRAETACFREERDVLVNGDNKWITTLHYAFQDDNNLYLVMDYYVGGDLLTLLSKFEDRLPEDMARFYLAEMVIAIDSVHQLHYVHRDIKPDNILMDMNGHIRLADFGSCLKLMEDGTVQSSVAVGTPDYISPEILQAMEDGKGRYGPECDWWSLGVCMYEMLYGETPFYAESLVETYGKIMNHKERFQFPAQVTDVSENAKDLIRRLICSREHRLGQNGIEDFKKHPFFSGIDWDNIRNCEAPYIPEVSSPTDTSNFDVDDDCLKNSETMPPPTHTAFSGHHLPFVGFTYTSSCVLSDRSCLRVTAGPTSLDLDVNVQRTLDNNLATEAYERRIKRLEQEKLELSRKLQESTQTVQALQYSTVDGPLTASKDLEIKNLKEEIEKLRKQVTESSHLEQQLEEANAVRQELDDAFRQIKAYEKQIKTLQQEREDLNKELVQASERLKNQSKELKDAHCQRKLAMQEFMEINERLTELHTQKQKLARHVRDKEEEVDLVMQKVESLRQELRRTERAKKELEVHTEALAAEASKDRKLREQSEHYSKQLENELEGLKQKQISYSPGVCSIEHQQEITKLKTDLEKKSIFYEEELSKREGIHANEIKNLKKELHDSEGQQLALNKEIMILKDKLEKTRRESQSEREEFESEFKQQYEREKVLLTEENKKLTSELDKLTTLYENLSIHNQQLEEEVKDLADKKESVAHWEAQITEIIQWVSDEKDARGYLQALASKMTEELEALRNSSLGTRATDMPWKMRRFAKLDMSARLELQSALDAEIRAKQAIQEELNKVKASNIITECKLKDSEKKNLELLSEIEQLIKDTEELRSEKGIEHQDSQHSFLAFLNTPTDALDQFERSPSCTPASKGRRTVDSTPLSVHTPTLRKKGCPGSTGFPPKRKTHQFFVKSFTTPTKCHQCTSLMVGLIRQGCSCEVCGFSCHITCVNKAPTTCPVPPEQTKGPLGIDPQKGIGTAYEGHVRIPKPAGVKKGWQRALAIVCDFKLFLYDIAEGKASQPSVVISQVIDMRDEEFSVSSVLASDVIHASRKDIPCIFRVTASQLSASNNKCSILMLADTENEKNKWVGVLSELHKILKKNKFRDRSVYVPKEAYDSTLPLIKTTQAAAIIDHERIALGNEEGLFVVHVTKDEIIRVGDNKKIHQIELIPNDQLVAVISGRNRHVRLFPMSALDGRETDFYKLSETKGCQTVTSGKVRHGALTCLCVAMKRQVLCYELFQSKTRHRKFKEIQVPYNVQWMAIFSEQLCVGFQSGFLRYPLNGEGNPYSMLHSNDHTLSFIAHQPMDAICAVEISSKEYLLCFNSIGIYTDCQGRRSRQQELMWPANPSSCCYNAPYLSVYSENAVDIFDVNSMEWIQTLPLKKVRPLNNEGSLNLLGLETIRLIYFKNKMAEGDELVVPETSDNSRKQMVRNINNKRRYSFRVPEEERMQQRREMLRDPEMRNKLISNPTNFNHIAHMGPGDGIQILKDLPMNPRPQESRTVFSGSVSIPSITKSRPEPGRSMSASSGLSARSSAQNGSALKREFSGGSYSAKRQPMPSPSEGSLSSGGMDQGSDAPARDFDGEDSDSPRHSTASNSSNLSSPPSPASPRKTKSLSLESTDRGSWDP
Sequence of Casein kinase II subunit alpha (P68400 whole entry): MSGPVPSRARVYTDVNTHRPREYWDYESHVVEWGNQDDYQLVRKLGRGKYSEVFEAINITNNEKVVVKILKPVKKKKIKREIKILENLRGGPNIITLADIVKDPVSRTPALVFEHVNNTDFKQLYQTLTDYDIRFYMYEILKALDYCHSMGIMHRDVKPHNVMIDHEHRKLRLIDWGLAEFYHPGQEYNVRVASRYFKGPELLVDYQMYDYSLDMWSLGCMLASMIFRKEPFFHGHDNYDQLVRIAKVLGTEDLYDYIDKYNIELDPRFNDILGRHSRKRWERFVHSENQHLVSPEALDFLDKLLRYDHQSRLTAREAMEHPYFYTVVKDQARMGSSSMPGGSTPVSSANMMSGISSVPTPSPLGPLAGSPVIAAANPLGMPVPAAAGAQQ

On to `COc1ccc(-c2nnc(NC(=O)c3ccc(F)cc3)o2)cc1`, for which the IC50 in assay [1] was > 118 µM (inactive).
Regarding `CCn1c(-c2nonc2N)nc2cnc(Oc3cccc(NC(=O)c4ccc(OCCN5CCOCC5)cc4)c3)cc21` [GSK-269962A], the Ki was > 6.31 µM (inactive) in assay [2], > 7.94 µM (inactive) in assay [3], 3.16 µM (active) in assay [4] and 0.158 µM (active) in assay [5].
